From publication PMC10258912, “Synthesis and Molecular Docking of New N-Acyl Hydrazones-Benzimidazole as hCA I and II Inhibitors” (Medicinal Chemistry (Shariqah (United Arab Emirates), 2023)
Read-outs that look alike come from different tables or passages of the source.

Experiments:
hCA I = biological target: T1, hCA I (Homo sapiens, UniProt P00915); assay: hCA I hydratase activity inhibition assay (Wilbur-Anderson method); assay type: biochemical; details: for Ki: Cheng-Prusoff equation
T1 construct: made in house
T1 sequence (P00915 whole entry): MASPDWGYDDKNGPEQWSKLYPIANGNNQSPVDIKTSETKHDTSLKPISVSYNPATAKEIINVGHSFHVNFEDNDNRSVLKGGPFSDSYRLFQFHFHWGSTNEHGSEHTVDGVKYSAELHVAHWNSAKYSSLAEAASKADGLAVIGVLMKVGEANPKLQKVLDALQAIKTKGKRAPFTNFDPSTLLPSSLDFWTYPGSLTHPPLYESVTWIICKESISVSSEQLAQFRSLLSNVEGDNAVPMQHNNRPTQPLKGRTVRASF
Method: (§1) Purification of hCA I and hCA II by affinity chromatography was performed as described in the previous work.
(§2) The Wilbur-Anderson method, as modified by Wilber et al., was used to calculate CA activity. With the help of a bromothymol blue indicator and a measurement of the passing time, the pH changes were calculated using this approach, which causes the hydration of CO2 to release H^+ ions. The equation (to-tc/tc), where to and tc are the times for pH change of the enzymatic and nonenzymatic processes, respectively, was used to compute the enzyme unit (EU).
(§3) While keeping the concentration of the substrate constant, IC50 values for the various compounds were computed. Enzyme activities in the absence of inhibitors in the medium were taken as 100% activity. By assessing the hydratase activity in the presence of various inhibitor concentrations, the activity % values of enzymes were calculated. Utilizing graphs of activity %-[I] for each inhibitor, the IC50 value was determined. The Cheng-Prusoff equation was used to derive inhibition constants using the nonlinear least squares method.

hCA II = biological target: T2, hCA II (Homo sapiens, UniProt P00918); assay: hCA II hydratase activity inhibition assay (Wilbur-Anderson method); assay type: biochemical; details: for relative inhibitory activity hCA II versus hCA I: comparison of IC50 values on hCA I and hCA II
T2 construct: made in house
Method: as §1, §2, §3

[1] = hydratase activity, constant substrate concentration, read-out: IC50 hCA I

Compound	IC50 (hCA I; [1]) [µM]	relative inhibitory activity hCA II versus hCA I (hCA II)	also measured
COc1ccc(C=NNC(=O)c2ccc(-c3nc4ccccc4[nH]3)cc2)cc1 [Compound 3k, 4-(1H-benzimidazole-2-yl)-N’-(4-methoxybenzylidene)benzohydrazide]		more inhibitory activity on hCA II than hCA I	
N-(1H-benzimidazole-2-yl)-N’-benzylidenebenzo hydrazide [Compound 3a]		more inhibitory activity on hCA II than hCA I	
CCN(CC)c1ccc(C=NNC(=O)c2ccc(-c3nc4ccccc4[nH]3)cc2)cc1 [Compound 3c, 4-(1H-benzimidazole-2-yl)-N’-(4-(diethylamino)benzylidene)benzohydrazide]			IC50 (hCA I): 2.09 µM
O=C(NN=Cc1ccc([N+](=O)[O-])cc1)c1ccc(-c2nc3ccccc3[nH]2)cc1 [Compound 3n, 4-(1H-benzimidazole-2-yl)-N’-(4-nitrobenzylidene) benzohydrazide]		more inhibitory activity on hCA II than hCA I	Ki (hCA I): 0.956 µM
CCOc1ccc(C=NNC(=O)c2ccc(-c3nc4ccccc4[nH]3)cc2)cc1 [Compound 3i, 4-(1H-benzimidazole-2-yl)-N’-(4-ethoxybenzylidene) benzohydrazide]		more inhibitory activity on hCA II than hCA I	
CC(C)c1ccc(C=NNC(=O)c2ccc(-c3nc4ccccc4[nH]3)cc2)cc1 [Compound 3d, 4-(1H-benzimidazole-2-yl)-N’-(4-isopropylbenzylidene)benzohydrazide]	1.87		

More lines, main results first:

IC50 (hCA I; [1]) [µM]	Compound	relative inhibitory activity hCA II versus hCA I (hCA II)	also measured
1.95	O=C(NN=Cc1ccc(OCc2ccccc2)cc1)c1ccc(-c2nc3ccccc3[nH]2)cc1 [Compound 3j, 4-(1H-benzimidazole-2-yl)-N’-(4-(benzyloxy)benzylidene)benzohydrazide]		
2.72	O=C(NN=Cc1ccc(F)cc1)c1ccc(-c2nc3ccccc3[nH]2)cc1 [Compound 3l, 4-(1H-benzimidazole-2-yl)-N’-(4-fluorobenzylidene)benzohydrazide]	fairly close inhibitory properties on hCA I and hCA II	IC50 (hCA II; hydratase activity, constant substrate concentration): 2.74 µM
1.68	Cc1ccc(C=NNC(=O)c2ccc(-c3nc4ccccc4[nH]3)cc2)cc1 [Compound 3p, 4-(1H-benzimidazole-2-yl)-N’-(4-methylbenzyli-dene) benzohydrazide]		type of inhibition, hCA I (hCA I): noncompetitive; Ki (hCA I): 0.299 ± 0.01 µM
